Test systems include IGROV1 ovarian; SNB-19 CNS; SK-OV-3 ovarian; TK-10 renal; 786-0 renal; COLO 205 colon; HL-60(TB) leukemia; OVCAR-5 ovarian; HOP-62 NSCLC; HOP-92 NSCLC.
Holding throughout (experiment): growth of human tumour cells (NCI), 48 h

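48-hour exposure; five concentrations; linearly interpolated endpoints. GI50 marks 50% less growth. TGI: total growth inhibition.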

Experimental findings from PubChem BioAssay (NCI) are described below.

On to `CCOC(=O)C1=C(C(=O)c2ccc(C)cc2)C(c2cccc([N+](=O)[O-])c2)C(C(=O)c2ccc(C)cc2)=C(C(=O)OCC)N1`, for which the TGI in the test with IGROV1 ovarian was determined as 35.3 µM; in the test with SNB-19 CNS, 25.9 µM; with SK-OV-3 ovarian, 27.9 µM; in the test with TK-10 renal, 43.2 µM; in the test with 786-0 renal, 32.9 µM; in the test on COLO 205 colon, 4.03 µM. The TGI with HL-60(TB) leukemia is 96.7 µM; with OVCAR-5 ovarian it was 34.7 µM; in the test on HOP-62 NSCLC, 41 µM.

For the compound `O=C1c2ccc([N+](=O)[O-])cc2-c2c1c1ccccc1c(=O)n2CCCNCCCNCCCn1c2c(c3ccc([N+](=O)[O-])cc3c1=O)C(=O)c1ccccc1-2`, the GI50 with IGROV1 ovarian was 2.43 µM; in the test on SNB-19 CNS, 0.985 µM; in the test on SK-OV-3 ovarian, 4.79 µM; in the test with TK-10 renal it was 5.32 µM; with 786-0 renal it was 1.2 µM; in the test with COLO 205 colon, 1.33 µM. Further, the GI50 is 2.09 µM in the test with HL-60(TB) leukemia, 3.05 µM with OVCAR-5 ovarian and 1.85 µM with HOP-62 NSCLC. Moreover, the TGI with IGROV1 ovarian was determined as 15.8 µM; in the test with SNB-19 CNS, 6.54 µM; in the test on SK-OV-3 ovarian, 19.2 µM; in the test on TK-10 renal, 33.9 µM; in the test on 786-0 renal, 7.21 µM; in the test with COLO 205 colon it was 6.83 µM. Moreover, the TGI is 7.48 µM with HL-60(TB) leukemia, 11.3 µM with OVCAR-5 ovarian and 12.4 µM with HOP-62 NSCLC.

Regarding `CCCn1c(SC)nc(COC(=O)NC)c1COC(=O)NC`, the TGI in the test on IGROV1 ovarian, in the test with SNB-19 CNS, with SK-OV-3 ovarian, in the test with TK-10 renal, in the test with 786-0 renal and in the test with COLO 205 colon was greater than 100 µM in each case. Further, the TGI with HL-60(TB) leukemia, in the test on OVCAR-5 ovarian and in the test with HOP-62 NSCLC was greater than 100 µM in each case.

Consider `O=[N+]([O-])c1ccc(S(=O)Cc2ccccc2)c([N+](=O)[O-])c1` (configuration not stated), for which the GI50 was 14.1 µM in the test on IGROV1 ovarian; 14 µM in the test with SNB-19 CNS; 16.4 µM in the test on SK-OV-3 ovarian; 1.78 µM in the test on TK-10 renal; 4.91 µM in the test on 786-0 renal; 1.68 µM in the test on COLO 205 colon. Further, the GI50 was 2.21 µM in the test on HL-60(TB) leukemia, 14.5 µM in the test with OVCAR-5 ovarian and 11.6 µM in the test with HOP-62 NSCLC. Further, the TGI in the test with IGROV1 ovarian was 33.9 µM; in the test on SNB-19 CNS it was 27.6 µM; with SK-OV-3 ovarian it was 30 µM; in the test with TK-10 renal, 3.16 µM; in the test with 786-0 renal, 17.3 µM; in the test with COLO 205 colon, 3.05 µM. Further, the figures for the TGI with HL-60(TB) leukemia, in the test on OVCAR-5 ovarian and with HOP-62 NSCLC were 5.2 µM, 29.9 µM and 23.8 µM, respectively.

In the case of `O=C(O)COc1ccc(O)c2c1C(=O)CCCC2=O`, the TGI in the test with IGROV1 ovarian, in the test on SNB-19 CNS, with SK-OV-3 ovarian, with TK-10 renal, in the test with 786-0 renal and with COLO 205 colon was greater than 100 µM throughout. For the same compound, the TGI in the test on HL-60(TB) leukemia, with OVCAR-5 ovarian and in the test with HOP-62 NSCLC was greater than 100 µM throughout.

Regarding `O=C(Nc1cccs1)c1c(O)[nH]c(=S)[nH]c1=O`, the TGI in the test on IGROV1 ovarian, in the test with HOP-92 NSCLC, in the test with SNB-19 CNS, with SK-OV-3 ovarian, with TK-10 renal and in the test on 786-0 renal was greater than 100 µM each time. In addition, the TGI in the test on COLO 205 colon, in the test with OVCAR-5 ovarian and with HOP-62 NSCLC was greater than 100 µM in each case.

For `FC(F)(F)c1cc(-c2nnc3n2N=C(N2CCCC2)CS3)cc(C(F)(F)F)c1`, the GI50 in the test with IGROV1 ovarian was greater than 50 µM; with HOP-92 NSCLC, 25.9 µM; in the test with SNB-19 CNS it was 30.2 µM; in the test on SK-OV-3 ovarian it was 14.3 µM; with 786-0 renal, 20.3 µM; in the test on COLO 205 colon, greater than 50 µM. The GI50 is greater than 50 µM with OVCAR-5 ovarian and 16.7 µM in the test with HOP-62 NSCLC. In addition, the TGI with IGROV1 ovarian, in the test on HOP-92 NSCLC, in the test on SNB-19 CNS, in the test with SK-OV-3 ovarian, in the test on 786-0 renal and with COLO 205 colon was greater than 50 µM throughout. Moreover, the TGI with OVCAR-5 ovarian and with HOP-62 NSCLC was greater than 50 µM throughout.

On to `COc1ccccc1/C=C/[N+](=O)[O-]`, for which the GI50 in the test on IGROV1 ovarian was 2.54 µM; in the test with SNB-19 CNS, 4.85 µM; in the test with SK-OV-3 ovarian it was 5.81 µM; with TK-10 renal it was 2.81 µM; in the test on 786-0 renal, 1.82 µM; with COLO 205 colon it was 2.12 µM. Besides, the GI50 in the test on HL-60(TB) leukemia was 1.92 µM; with OVCAR-5 ovarian, 3.55 µM; in the test with HOP-62 NSCLC it was 2.57 µM. The TGI with IGROV1 ovarian was found to be 8.32 µM; with SNB-19 CNS, 19 µM; in the test on SK-OV-3 ovarian it was 17.7 µM; in the test on TK-10 renal it was 6.31 µM; in the test on 786-0 renal, 3.35 µM; in the test on COLO 205 colon, 4.52 µM. The TGI was 4.49 µM in the test on HL-60(TB) leukemia, 14.1 µM with OVCAR-5 ovarian and 7.12 µM in the test with HOP-62 NSCLC.

Take `O=C(c1ccccc1)C1CCCCN1C(=O)c1ccccc1` (configuration not stated): the TGI in the test on IGROV1 ovarian, in the test on SNB-19 CNS, in the test on SK-OV-3 ovarian, in the test on TK-10 renal, in the test on 786-0 renal and with COLO 205 colon was greater than 100 µM each time. The TGI with HL-60(TB) leukemia and in the test with HOP-62 NSCLC was greater than 100 µM in each case.

As for `CCCNCCCC(NC(C)=O)C(=O)NCc1ccccc1` (configuration not stated), the TGI in the test with IGROV1 ovarian, in the test on HOP-92 NSCLC, with SNB-19 CNS, with SK-OV-3 ovarian, in the test on TK-10 renal and with 786-0 renal was greater than 100 µM in each case. In addition, the TGI in the test on COLO 205 colon, in the test with OVCAR-5 ovarian and in the test with HOP-62 NSCLC was greater than 100 µM throughout.

`O=C(O)C1C2CCC(O2)C1C(=O)N1CCCCC1` (configuration not stated): the TGI in the test on IGROV1 ovarian came out at 74.6 µM; in the test on HOP-92 NSCLC it was 7.33 µM; with SNB-19 CNS, 38.2 µM; with SK-OV-3 ovarian it was 42.9 µM; in the test with TK-10 renal it was 8.42 µM; with 786-0 renal it was 15 µM. In addition, the TGI with COLO 205 colon was found to be 3.87 µM; in the test with OVCAR-5 ovarian, 62.8 µM; in the test with HOP-62 NSCLC it was 35.8 µM.
